Laboratory results from PMC10709440, “High-throughput ligand profile characterization in novel cell lines expressing seven heterologous insect olfactory receptors for the detection of volatile plant biomarkers” (Scientific Reports, 2023).
Read-outs that look alike come from different tables or passages of the source.

Experiments:
Drosophila OR47a = biological target: T1, Drosophila OR47a (Drosophila melanogaster, UniProt P81921); assay: Calcium ion fluorescence (GCaMP6) assay, OR47a stable HEK293 cell line; type: cell-based; settings: for OR47a Average response (VUAA1-normalized): 50 μM VUAA1 = 1; for Average response / OR47a response (VUAA1-normalized) at 1 μM / OR47a response (VUAA1-normalized) at 10 μM / OR47a response (VUAA1-normalized) at 100 μM: OR47a cell line; for Average response: mean of biological replicates
T1 construct: expressed in transfected cells
T1 sequence (P81921 1-385): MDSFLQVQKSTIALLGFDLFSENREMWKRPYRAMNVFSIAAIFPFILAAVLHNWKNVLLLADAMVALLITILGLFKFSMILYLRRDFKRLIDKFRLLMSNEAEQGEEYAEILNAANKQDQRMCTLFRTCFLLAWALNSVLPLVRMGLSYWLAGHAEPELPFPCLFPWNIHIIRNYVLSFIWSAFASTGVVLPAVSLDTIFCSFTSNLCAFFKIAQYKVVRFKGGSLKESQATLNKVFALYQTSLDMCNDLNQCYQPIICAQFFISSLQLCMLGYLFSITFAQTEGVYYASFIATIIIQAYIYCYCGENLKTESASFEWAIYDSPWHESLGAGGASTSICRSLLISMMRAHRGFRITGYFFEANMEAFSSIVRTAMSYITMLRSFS
T1 sequence (Q9VNB5 1-486 partner): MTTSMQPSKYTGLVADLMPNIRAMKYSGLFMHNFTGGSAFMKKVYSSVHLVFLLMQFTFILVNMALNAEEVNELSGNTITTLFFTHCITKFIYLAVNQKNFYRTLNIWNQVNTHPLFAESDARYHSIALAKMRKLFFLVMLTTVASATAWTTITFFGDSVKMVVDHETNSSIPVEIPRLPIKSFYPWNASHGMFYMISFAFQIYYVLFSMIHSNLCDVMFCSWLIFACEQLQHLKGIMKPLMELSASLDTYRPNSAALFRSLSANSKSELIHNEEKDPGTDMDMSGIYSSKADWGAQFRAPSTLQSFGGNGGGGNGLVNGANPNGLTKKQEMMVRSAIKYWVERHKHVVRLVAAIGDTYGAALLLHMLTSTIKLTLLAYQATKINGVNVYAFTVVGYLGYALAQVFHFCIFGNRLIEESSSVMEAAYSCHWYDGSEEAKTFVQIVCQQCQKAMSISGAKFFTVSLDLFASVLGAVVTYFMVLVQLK
How it was run: (§1)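 HEK293 lines stably expressing each Drosophila OR with GCaMP6, doxycycline-induced (1 μg/mL) 48 or 72 h. Fluorescence recorded 5 s baseline then 30 s after VOC injection at pH 7.3; ΔF=(FMAX−F0)/F0, normalized to 50 µM VUAA1 response per line, triplicate wells averaged; concentration series 0.01–100 μM.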

Drosophila OR13a = biological target: T2, Drosophila OR13a (Drosophila melanogaster, UniProt Q9VXL0); assay: Calcium ion fluorescence (GCaMP6) assay, OR13a stable HEK293 cell line; type: cell-based; settings: for OR13a response (VUAA1-normalized) at 1 μM / OR13a response (VUAA1-normalized) at 10 μM / OR13a response (VUAA1-normalized) at 100 μM: OR13a cell line
T2 construct: expressed in transfected cells
T2 sequence (Q9VXL0 1-418): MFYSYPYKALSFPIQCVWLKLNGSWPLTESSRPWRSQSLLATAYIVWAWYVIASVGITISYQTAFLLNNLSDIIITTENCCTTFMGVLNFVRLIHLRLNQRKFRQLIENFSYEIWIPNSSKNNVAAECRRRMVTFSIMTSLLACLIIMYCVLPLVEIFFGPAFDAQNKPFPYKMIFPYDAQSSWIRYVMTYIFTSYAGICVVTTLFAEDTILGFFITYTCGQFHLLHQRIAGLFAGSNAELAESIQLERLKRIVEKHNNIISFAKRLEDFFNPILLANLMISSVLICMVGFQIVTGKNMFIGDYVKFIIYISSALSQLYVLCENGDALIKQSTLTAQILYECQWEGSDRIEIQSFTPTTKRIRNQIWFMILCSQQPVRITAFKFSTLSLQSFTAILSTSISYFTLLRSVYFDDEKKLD
T2 sequence (Q9VNB5 1-486 partner): T1 sequence (Q9VNB5 1-486 partner)
How it was run: as §1

[1] = ligand concentration 1 (unit not given), 0.05 threshold, values below shown as 0
[2] = ligand concentration 10 (unit not given), 0.05 threshold, values below shown as 0
[3] = ligand concentration 100 (unit not given), 0.05 threshold, values below shown as 0
[4] = 1 μM VOC, 50 μM VUAA1 = 1, responses not exceeding 0.05 considered 0
[5] = 10 μM VOC, 50 μM VUAA1 = 1, responses not exceeding 0.05 considered 0
[6] = 100 μM VOC, 50 μM VUAA1 = 1, responses not exceeding 0.05 considered 0
[7] = HEK293, read-out: OR13a Average response (VUAA1-normalized), 1 μM VOC, 50 μM VUAA1 = 1, responses not exceeding 0.05 considered 0
[8] = HEK293, read-out: OR13a Average response (VUAA1-normalized), 10 μM VOC, 50 μM VUAA1 = 1, responses not exceeding 0.05 considered 0
[9] = HEK293, read-out: OR13a Average response (VUAA1-normalized), 100 μM VOC, 50 μM VUAA1 = 1, responses not exceeding 0.05 considered 0
[10] = ligand concentration 1 (unit not given), threshold 0.05, below shown as 0
[11] = ligand concentration 10 (unit not given), threshold 0.05, below shown as 0
[12] = ligand concentration 100 (unit not given), threshold 0.05, below shown as 0
[13] = HEK293, read-out: OR47a Average response (VUAA1-normalized)
[14] = HEK293, read-out: OR47a response (VUAA1-normalized response)
[15] = concentration 1, normalized fluorescence change, values below 0.05 threshold given as 0
[16] = concentration 10, normalized fluorescence change, values below 0.05 threshold given as 0
[17] = concentration 100, normalized fluorescence change, values below 0.05 threshold given as 0

Structure (SMILES) | Average response (Drosophila OR47a; odorant cc. 1 µM) | Average response (Drosophila OR47a; odorant cc. 10 µM) | Average response (Drosophila OR47a; odorant cc. 100 µM) | OR13a Average response (VUAA1-normalized) (Drosophila OR13a; [4]) | OR13a Average response (VUAA1-normalized) (Drosophila OR13a; [5]) | OR13a Average response (VUAA1-normalized) (Drosophila OR13a; [6]) | OR47a response (VUAA1-normalized) at 1 μM (Drosophila OR47a; VOC concentration 1 μM) | OR47a response (VUAA1-normalized) at 10 μM (Drosophila OR47a; VOC concentration 10 μM) | OR47a response (VUAA1-normalized) at 100 μM (Drosophila OR47a; VOC concentration 100 μM) | activation at 1 µM (Drosophila OR13a; [7]) | activation at 10 µM (Drosophila OR13a; [8]) | activation at 100 µM (Drosophila OR13a; [9]) | OR13a response (VUAA1-normalized) at 1 μM (Drosophila OR13a; VOC concentration 1 μM) | OR13a response (VUAA1-normalized) at 10 μM (Drosophila OR13a; VOC concentration 10 μM) | DF norm AVERAGE OR47a (Drosophila OR47a; [10]) | DF norm AVERAGE OR47a (Drosophila OR47a; [11]) | DF norm AVERAGE OR47a (Drosophila OR47a; [12]) | DF norm AVERAGE OR13a (Drosophila OR13a; [10]) | DF norm AVERAGE OR13a (Drosophila OR13a; [11]) | DF norm AVERAGE OR13a (Drosophila OR13a; [12]) | further results
CC/C=C\CCO [Z3-hexenol] | 0.0266 | 0.0571 | 0.10 | 0.04 | 0.06 | 0.00 | – | – | – | – | – | – | – | – | – | – | – | – | – | – | OR47a Average response (VUAA1-normalized) (Drosophila OR47a; 1 μM VOC): 0.03; OR47a Average response (VUAA1-normalized) (Drosophila OR47a; 10 μM VOC): 0.06; OR47a Average response (VUAA1-normalized) (Drosophila OR47a; 100 μM VOC): 0.10; DF norm AVERAGE OR47a (Drosophila OR47a; [1]): 0; DF norm AVERAGE OR47a (Drosophila OR47a; [2]): 0.0571; DF norm AVERAGE OR47a (Drosophila OR47a; [3]): 0.1005; DF norm AVERAGE OR13a (Drosophila OR13a; [1]): 0; DF norm AVERAGE OR13a (Drosophila OR13a; [2]): 0.05798; DF norm AVERAGE OR13a (Drosophila OR13a; [3]): 0
Cc1ccccc1 [toluene] | 0.00 | 0.0267 | 0.00 | – | – | – | 0.00 | 0.00 | 0.00 | 0% | 0% | 0% | 0.00 | 0.00 | – | – | – | – | – | – | DF norm AVERAGE OR47a (Drosophila OR47a; [1]): 0; DF norm AVERAGE OR47a (Drosophila OR47a; [2]): 0; DF norm AVERAGE OR47a (Drosophila OR47a; [3]): 0; OR13a response (VUAA1-normalized) at 100 μM (Drosophila OR13a; VOC concentration 100 μM): 0.00; DF norm AVERAGE OR13a (Drosophila OR13a; [1]): 0; DF norm AVERAGE OR13a (Drosophila OR13a; [2]): 0; DF norm AVERAGE OR13a (Drosophila OR13a; [3]): 0
CC(C)=CCC/C(C)=C/CC/C(C)=C/CO [e,e-farnesol] | 0.03 | 0.00 | 0.032 | 0.00 | 0.033 | 0.026 | – | – | – | – | – | – | – | – | 0 | 0 | 0 | 0 | 0 | 0 | OR47a response (VUAA1-normalized response) (Drosophila OR47a; VOC concentration 1 μM): 0.00; OR47a response (VUAA1-normalized response) (Drosophila OR47a; VOC concentration 10 μM): 0.00; OR47a response (VUAA1-normalized response) (Drosophila OR47a; VOC concentration 100 μM): 0.00; OR13a response (VUAA1-normalized response) (Drosophila OR13a; VOC concentration 1 μM): 0.00; OR13a response (VUAA1-normalized response) (Drosophila OR13a; VOC concentration 10 μM): 0.00; OR13a response (VUAA1-normalized response) (Drosophila OR13a; VOC concentration 100 μM): 0.00
CCCCCC(=O)OCC [ethyl hexanoate] | 0.0662 | 0.26 | 0.67 | – | – | – | – | – | – | 3.2% | 2.46% | 0% | – | – | 0.06617 | 0.2596 | 0.6687 | 0 | 0 | 0 | activation at 1 µM (Drosophila OR47a; [13]): 7%; activation at 10 µM (Drosophila OR47a; [13]): 26%; activation at 100 µM (Drosophila OR47a; [13]): 67%; activation at 1 µM (Drosophila OR47a; [14]): 6.62%; activation at 10 µM (Drosophila OR47a; [14]): 26%; activation at 100 µM (Drosophila OR47a; [14]): 67%; activation at 1 µM (Drosophila OR13a; HEK293, read-out: OR13a response (VUAA1-normalized response), VOC concentration 1 μM): 0%; activation at 10 µM (Drosophila OR13a; HEK293, read-out: OR13a response (VUAA1-normalized response), VOC concentration 10 μM): 0%; activation at 100 µM (Drosophila OR13a; HEK293, read-out: OR13a response (VUAA1-normalized response), VOC concentration 100 μM): 0%
C=C1[C@H]2CC[C@@H]3[C@H]2C(C)(C)CCC[C@]13C [(+)-longifolene] | 0.00 | 0.00 | 0.0238 | 0.00 | 0.037 | 0.00 | – | – | – | – | – | – | – | – | – | – | – | – | – | – | OR47a response (VUAA1-normalized response) (Drosophila OR47a; VOC concentration 1 μM): 0.00; OR47a response (VUAA1-normalized response) (Drosophila OR47a; VOC concentration 10 μM): 0.00; OR47a response (VUAA1-normalized response) (Drosophila OR47a; VOC concentration 100 μM): 0.00; DF norm AVERAGE OR47a (Drosophila OR47a; [15]): 0; DF norm AVERAGE OR47a (Drosophila OR47a; [16]): 0; DF norm AVERAGE OR47a (Drosophila OR47a; [17]): 0; OR13a response (VUAA1-normalized response) (Drosophila OR13a; VOC concentration 1 μM): 0.00; OR13a response (VUAA1-normalized response) (Drosophila OR13a; VOC concentration 10 μM): 0.00; OR13a response (VUAA1-normalized response) (Drosophila OR13a; VOC concentration 100 μM): 0.00; DF norm AVERAGE OR13a (Drosophila OR13a; [15]): 0; DF norm AVERAGE OR13a (Drosophila OR13a; [16]): 0; DF norm AVERAGE OR13a (Drosophila OR13a; [17]): 0
Cc1cccc(C)c1 [m-xylene] | 0.00 | 0.00 | 0.00 | – | – | – | 0.00 | 0.00 | 0.00 | 0% | 0% | 4% | 0.00 | 0.00 | 0 | 0 | 0 | 0 | 0 | 0 | OR13a response (VUAA1-normalized) at 100 μM (Drosophila OR13a; VOC concentration 100 μM): 0.00
CCCCCCCCC=O [nonanal] | 0.00 | 0.00 | 0.00 | – | – | – | 0.00 | 0.00 | 0.00 | 0% | 0% | 0% | 0.00 | 0.00 | 0 | 0 | 0 | 0 | 0 | 0 | OR13a response (VUAA1-normalized) at 100 μM (Drosophila OR13a; VOC concentration 100 μM): 0.00
